Test results published in patent publication US9682995B2, “Amino-substituted isothiazoles” (BAYER PHARMA AKTIENGESELLSCHAFT, priority 2013, dated 2017).

Key:
[1] = test system: spindle assembly checkpoint; experiment: SAC-Formation - Paclitaxel-Induced Assay; format: cell-based; conditions: Homo sapiens; HeLa cells, paclitaxel 0.05 μM, 24 h, phosphorylated histone H3 on serine 10
In short: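 HeLa cells were plated overnight, then given paclitaxel (0.05 μM final) plus compound (0.005-20 μM, 0.5% DMSO) for 24 h at 37° C. Fixed cells were stained for phospho-histone H3 Ser10 and with Hoechst, then imaged to give mitotic index. A fall in mitotic cells marks SAC breakthrough, and values were fit with a four-parameter Hill equation.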

[2] = test system: spindle assembly checkpoint; experiment: SAC-Formation - Nocodazole-Induced Assay; format: cell-based; conditions: Homo sapiens; HeLa cells, nocodazole 0.1 μg/ml, 24 h, phosphorylated histone H3 on serine 10
In short: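 HeLa cells were given nocodazole at 0.1 μg/ml final together with compounds (0.005–20 μM, 0.5% DMSO) for 24 h at 37° C. Mitotic cells were counted by phospho-histone H3 Ser10 immunostaining, with cell number from HOECHST 33342, by high-content imaging. The loss of mitotic cells was fitted with a four-parameter Hill equation.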

IC50 [1] | IC50 [2] | SMILES
4700 nM | 1900 nM | CNC(=O)c1ccc(Nc2snc(C)c2C(=O)Nc2ccc(F)c(F)c2)nn1 [Example 80, 6-({4-[(3,4-Difluorophenyl)carbamoyl]-3-methyl-1,2-thiazol-5-yl}amino)-N-methylpyridazine-3-carboxamide]
10 nM | 48 nM | Cc1cncc(Nc2snc(C)c2C(=O)Nc2ccc(F)c(F)c2)n1 [Example 69]
1100 nM | 820 nM | COc1ccc(NC(=O)c2c(C)nsc2Nc2nc3ccc(F)cc3s2)cn1 [Example 88, 5-[(6-Fluoro-1,3-benzothiazol-2-yl)amino]-N-(6-methoxypyridin-3-yl)-3-methyl-1,2-thiazole-4-carboxamide]
84 nM | 94 nM | Cc1nsc(Nc2cncc(Cl)n2)c1C(=O)Nc1ccc(F)c(F)c1 [Example 71, 5-[(6-Chloropyrazin-2-yl)amino]-N-(3,4-difluorophenyl)-3-methyl-1,2-thiazole-4-carboxamide]
8.3 nM | 18 nM | Cc1nsc(Nc2cnc(Br)cn2)c1C(=O)Nc1ccc(F)c(F)c1 [Example 77, 5-[(5-Bromopyrazin-2-yl)amino]-N-(3,4-difluorophenyl)-3-methyl-1,2-thiazole-4-carboxamide]
77 nM | 21 nM | Cc1nsc(Nc2cncc(C(F)(F)F)n2)c1C(=O)Nc1ccc(F)c(F)c1 [Example 82, N-(3,4-Difluorophenyl)-3-methyl-5-{[6-(trifluoromethyl)pyrazin-2-yl]amino}-1,2-thiazole-4-carboxamide]
8000 nM | 1400 nM | COc1ccc(NC(=O)c2c(C)nsc2Nc2ncc(C(=O)N3CCOCC3)s2)cc1F [Example 93, N-(3-Fluoro-4-methoxyphenyl)-3-methyl-5-{[5-(morpholin-4-ylcarbonyl)-1,3-thiazol-2-yl]amino}-1,2-thiazole-4-carboxamide]
> 20000 nM | 1200 nM | CCc1ccccc1NC(=O)c1c(C)nsc1Nc1nccc(-c2ccccc2)n1 [Example 5, N-(2-Ethylphenyl)-3-methyl-5-[(4-phenylpyrimidin-2-yl)amino]-1,2-thiazole-4-carboxamide]
52 nM | 6.2 nM | COc1ccc(NC(=O)c2c(C)nsc2Nc2cnc(C(F)(F)F)cn2)cn1 [Example 85, N-(6-methoxypyridin-3-yl)-3-methyl-5-{[5-(trifluoromethyl)pyrazin-2-yl]amino}-1,2-thiazole-4-carboxamide]
